Measured values from PMC5337940, “Sansanmycin natural product analogues as potent and selective anti-mycobacterials that inhibit lipid I biosynthesis” (Nature Communications, 2017).
In brackets after ≈: the same amount, converted by molar mass. Where two headings read alike, the source gives them in different places.

Key:
[1] = system: H37Rv; parameters: method as in Xie et al. 14, 15; conditions: isolated natural products; ref Xie et al. 14, 15; cited from earlier work
[2] = target: T1, Mtb MurX (Mycobacterium tuberculosis, UniProt P9WMW7); assay: biochemical
[3] = system: HEK293 cells; assay: Cytotoxicity counter-screen, resazurin reduction microplate assay; assay type: cell-based; conditions: Homo sapiens, tested up to 200 μM, read-out: MIC50 (HEK293)
[4] = in vitro; assay type: in vitro ADME; conditions: plasma
Source text: Human blood from nonidentifiable volunteer donors was sourced from the Australian Red Cross Blood Service under a supply agreement approved by the Monash Human Research Ethics Committee. Mouse blood was collected in-house under tissue harvesting protocols approved by the Monash Institute of Pharmaceutical Sciences Animal Ethics Committee. Pooled human and Swiss outbred mouse plasma samples were thawed and spiked with test compound solutions prepared in DMSO/acetonitrile/water (20:40:40) to provide a final compound concentration of 1,000 ng ml^−1 and final DMSO and acetonitrile concentrations of 0.2% and 0.4% (v/v), respectively. Plasma was vortex mixed and aliquots (50 μl) were transferred to fresh microcentrifuge tubes and incubated at 37 °C. At various time points over the 6 h incubation period, duplicate plasma samples were removed and immediately snap-frozen in dry ice. All samples were stored frozen at −80 °C until analysis by LC–MS. Samples were processed by protein precipitation using a two-fold excess of acetonitrile followed by centrifugation. Analysis of the supernate was conducted using a Waters (Milford, MA) Acquity UPLC coupled to a Waters Micromass Quattro Premier mass spectrometer operated in positive electrospray ionization mode with multiple reaction monitoring. The cone voltage was 45 V, collision energy was 30, 30 and 40 V for 25, 36 and 37, respectively, and m/z transitions were 782.30>126.06 (25), 826.32>170.16 (36) and 888.39>126.06 (37). Processed samples (3 μl) were injected onto a Supelco Ascentis Express RP Amide column (50 × 2.1 mm, 2.7 μm) and analytes eluted using a water/acetonitrile (each containing 0.05% formic acid) gradient over 4 min with a flow rate was 0.4 ml min^−1. Sample concentrations were quantitated by comparison to a calibration curve prepared in blank human or mouse plasma.

[5] = system: Mtb H37Ra in THP-1 cells; assay: Intracellular assay, Mtb-infected THP-1 macrophages, CFU count; conditions: read-out: IC50 intracellular anti-mycobacterial activity; THP-1 macrophages infected with Mtb (H37Ra), average of 2 independent experiments
[6] = system: Mtb H37Rv; assay: Resazurin reduction microplate assay, growth inhibition of Mtb H37Rv; assay type: cell-based, Mycobacterium tuberculosis
[7] = in vitro; assay type: in vitro ADME; conditions: microsomes; for Average half-life: 0.5 μM; for half-life at 0.5 μM: Average half-life
Description: The metabolic stability was assessed by incubating each test compound (0.5 μM) in duplicate with human and mouse liver microsomes (XenoTech, Kansas City, KS) at 37 °C and 0.4 mg ml^−1 microsomal protein. The metabolic reaction was initiated by the addition of an NADPH-regenerating system and quenched at various time points over a 60 min incubation period by the addition of acetonitrile containing diazepam as internal standard. Control samples (containing no NADPH) were included and quenched at 2, 30 and 60 min to monitor for potential degradation in the absence of cofactor. Samples were centrifuged and the supernatant analysed by LCMS. Analysis was conducted using a Waters Acquity UPLC coupled to a Waters Xevo G2 QTOF mass spectrometer operated in positive electrospray ionization MS^E mode with a cone voltage of 30 V. Samples (5 μl) were injected onto an Ascentis Express Amide column (50 × 2.1 mm, 2.7 μm) and eluted using a water/acetonitrile (both containing 0.05% formic acid) gradient over 4 min at a flow rate of 0.4 ml min^−1. Degradation rate half-lives and in vitro intrinsic clearance values were determined from the first order degradation profiles.

[8] = target: T1, Mtb MurX; assay: Radiochemical (TLC) MurX-MurG coupled inhibition assay in Mtb mc2 6230 membranes; assay type: biochemical; conditions: for inhibition at 0.2 µM: 200 nM inhibitor, decrease in lipid II formation
[9] = Mycobacterium tuberculosis, H37RV, Mtb H37Rv, read-out: MIC50 against Mtb
[10] = Mycobacterium tuberculosis, H37RV, average of two independent experiments, each in triplicate, read-out: MIC50 Mtb H37Rv
[11] = average of two independent experiments, each in triplicate

T1 sequence (P9WMW7 whole entry): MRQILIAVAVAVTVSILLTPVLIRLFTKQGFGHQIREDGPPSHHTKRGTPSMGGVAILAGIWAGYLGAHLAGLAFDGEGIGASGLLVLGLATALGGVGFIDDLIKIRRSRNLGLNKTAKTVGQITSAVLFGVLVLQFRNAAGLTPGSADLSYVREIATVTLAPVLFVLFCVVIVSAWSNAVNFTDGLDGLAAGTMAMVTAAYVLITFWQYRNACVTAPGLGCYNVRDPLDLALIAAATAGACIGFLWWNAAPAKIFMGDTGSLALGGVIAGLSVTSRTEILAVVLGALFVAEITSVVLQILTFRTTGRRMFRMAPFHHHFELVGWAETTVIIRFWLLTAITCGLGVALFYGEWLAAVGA

Molecule: C[C@@H]([C@H](NC(=O)[C@H](CC[S+](C)[O-])NC(=O)N[C@@H](Cc1c[nH]c2ccccc12)C(=O)O)C(=O)N/C=C1/C[C@@H](O)[C@H](n2ccc(=O)[nH]c2=O)O1)N(C)C(=O)[C@@H](N)c1cccc(O)c1 (some centres unmarked) [Compound 3, Sansanmycin C]
- MIC (H37Rv) [1]: > 36.3 µM

Molecule: tunicamycin [reference compound]
- IC50 ([2]; read-out: IC50 Mtb MurX, fluorescence assay): 189 nM

Molecule: CC(C)C[C@H](NC(=O)N[C@@H](Cc1c[nH]c2ccccc12)C(=O)O)C(=O)N[C@H](C(=O)N/C=C1/C[C@@H](O)[C@H](n2ccc(=O)[nH]c2=O)O1)[C@H](C)N(C)C(=O)[C@@H](N)c1cccc(O)c1 [Compound 2, Sansanmycin B]
- MIC (H37Rv) [1]: 9.5 µM (≈ 7.9 µg/mL)

Molecule: C[C@@H]([C@H](NC(=O)[C@H](CC1CCCCC1)NC(=O)N[C@@H](Cc1c[nH]c2ccccc12)C(=O)O)C(=O)NC[C@H]1C[C@@H](O)[C@H](n2ccc(=O)[nH]c2=O)O1)N(C)C(=O)CN [Compound 25]
- CC50 [3]: > 200 µM
- half-life at 1000 ng/ml ([4]; Swiss outbred, mouse): > 420 min
- half-life at 1000 ng/ml ([4]; human): > 420 min
- IC50 [5]: 1570 nM
- IC50 [2]: 30 nM
- MIC50 [6, 9]: 0.08 µM (≈ 0.0625 µg/mL)
- MIC50 [6, 10]: 0.08 ± 0.02 µM (≈ 0.0625 µg/mL)
- microsomal CLint at 0.5 μM ([7]; human): < 7 µL/min/mg
- Average half-life ([7]; human): > 160 min
- half-life at 0.5 μM ([7]; human): > 247 min
- microsomal CLint at 0.5 μM ([7]; mouse): < 7 µL/min/mg
- Average half-life ([7]; mouse): > 160 min
- half-life at 0.5 μM ([7]; mouse): > 247 min
- IC50 [8]: 54 nM
- inhibition at 0.2 µM [8]: 100%

Molecule: C[C@@H]([C@H](NC(=O)[C@H](CC1CCCCC1)NC(=O)N[C@@H](Cc1c[nH]c2ccccc12)C(=O)O)C(=O)NC[C@H]1C[C@@H](O)[C@H](n2ccc(=O)[nH]c2=O)O1)N(C)C(=O)[C@@H](N)Cc1cccc(O)c1 [Compound 37]
- CC50 [3]: > 200 µM
- half-life at 1000 ng/ml ([4]; Swiss outbred, mouse): > 420 min
- half-life at 1000 ng/ml ([4]; human): > 420 min
- IC50 [5]: 110 nM
- IC50 [2]: 16 nM
- MIC50 [6, 9]: 0.037 µM (≈ 0.0329 µg/mL)
- MIC50 [6, 10]: 0.037 ± 0.06 µM (≈ 0.0329 µg/mL)
- microsomal CLint at 0.5 μM ([7]; human): 10 µL/min/mg
- Average half-life ([7]; human): > 160 min
- half-life at 0.5 μM ([7]; human): 174 min
- microsomal CLint at 0.5 μM ([7]; mouse): 7 µL/min/mg
- Average half-life ([7]; mouse): > 160 min
- half-life at 0.5 μM ([7]; mouse): 233 min
- IC50 [8]: 41 nM
- inhibition at 0.2 µM [8]: 100%

Molecule: CSCC[C@H](NC(=O)N[C@@H](Cc1c[nH]c2ccccc12)C(=O)O)C(=O)N[C@H](C(=O)N/C=C1/C[C@@H](O)[C@H](n2ccc(=O)[nH]c2=O)O1)[C@H](C)N(C)C(=O)[C@@H](N)c1cccc(O)c1 [Compound 1, Sansanmycin A]
- MIC (H37Rv) [1]: 18.5 µM (≈ 15.7 µg/mL)

Molecule: C[C@@H]([C@H](NC(=O)[C@H](Cc1ccc2ccccc2c1)NC(=O)N[C@@H](Cc1c[nH]c2ccccc12)C(=O)O)C(=O)NC[C@H]1C[C@@H](O)[C@H](n2ccc(=O)[nH]c2=O)O1)N(C)C(=O)CN [Compound 36]
- CC50 [3]: > 200 µM
- half-life at 1000 ng/ml ([4]; Swiss outbred, mouse): > 420 min
- half-life at 1000 ng/ml ([4]; human): > 420 min
- IC50 [5]: 4330 nM
- IC50 [2]: 14 nM
- MIC50 [6, 9]: 0.18 µM (≈ 0.149 µg/mL)
- MIC50 [6, 10]: 0.18 ± 0.02 µM (≈ 0.149 µg/mL)
- microsomal CLint at 0.5 μM ([7]; human): < 7 µL/min/mg
- Average half-life ([7]; human): > 160 min
- half-life at 0.5 μM ([7]; human): > 247 min
- microsomal CLint at 0.5 μM ([7]; mouse): 10 µL/min/mg
- Average half-life ([7]; mouse): > 160 min
- half-life at 0.5 μM ([7]; mouse): 166 min
- IC50 [8]: 48 nM
- inhibition at 0.2 µM [8]: 100%

Molecule: CC(C)C[C@H](NC(=O)N[C@@H](Cc1c[nH]c2ccccc12)C(=O)O)C(=O)N[C@H](C(=O)NC[C@H]1C[C@@H](O)[C@H](n2ccc(=O)[nH]c2=O)O1)[C@H](C)N(C)C(=O)[C@H](C)N [Compound 13]
- CC50 [3]: > 200 µM
- MIC50 [6, 10]: 0.6 ± 0.14 µM (≈ 0.453 µg/mL)
- MIC50 ([6]; average of two independent experiments, each in triplicate, read-out: MIC50 Mtb H37Rv): 0.60 µM (≈ 0.453 µg/mL)
- inhibition at 0.2 µM [8]: 50%

Molecule: CC(C)C[C@H](NC(=O)N[C@@H](Cc1c[nH]c2ccccc12)C(=O)O)C(=O)N[C@H](C(=O)NC[C@H]1C[C@@H](O)[C@H](n2ccc(=O)[nH]c2=O)O1)[C@H](C)N(C)C(=O)[C@@H](N)CC(=O)O [Compound 14]
- CC50 [3]: > 200 µM
- MIC50 ([6]; Mycobacterium tuberculosis, H37RV, read-out: MIC50 Mtb H37Rv): 9.8 ± 1.1 µM (≈ 7.84 µg/mL)
- inhibition at 0.2 µM [8]: 8%

Molecule: CC(C)C[C@H](NC(=O)N[C@@H](Cc1c[nH]c2ccccc12)C(=O)O)C(=O)N[C@H](C(=O)NC[C@H]1C[C@@H](O)[C@H](n2ccc(=O)[nH]c2=O)O1)[C@H](C)N(C)C(=O)[C@@H](N)Cc1ccc2ccccc2c1 [Compound 9]
- CC50 [3]: > 200 µM
- MIC50 [6, 10]: 3 ± 0.7 µM (≈ 2.65 µg/mL)
- inhibition at 0.2 µM [8]: 27%

Molecule: CC(C)C[C@H](NC(=O)N[C@@H](Cc1c[nH]c2ccccc12)C(=O)O)C(=O)N[C@H](C(=O)NC[C@H]1C[C@@H](O)[C@H](n2ccc(=O)[nH]c2=O)O1)[C@H](C)N(C)C(=O)[C@@H](N)C1CCCCC1 [Compound 11]
- CC50 [3]: > 200 µM
- MIC50 [6, 10]: 1.1 ± 0.84 µM (≈ 0.906 µg/mL)
- MIC50 Mtb H37Rv [6, 11]: 0.95 to 1.35 µM
- inhibition at 0.2 µM [8]: 14%

Molecule: CC(C)C[C@H](NC(=O)N[C@@H](Cc1c[nH]c2ccccc12)C(=O)O)C(=O)N[C@H](C(=O)NC[C@H]1C[C@@H](O)[C@H](n2ccc(=O)[nH]c2=O)O1)[C@H](C)N(C)C(=O)[C@@H](N)[C@@H](C)O [Compound 17]
- CC50 [3]: > 200 µM
- MIC50 [6, 10]: 1.35 ± 0.07 µM (≈ 1.06 µg/mL)
- MIC50 Mtb H37Rv [6, 11]: 0.95 to 1.35 µM
- inhibition at 0.2 µM [8]: 20%

Molecule: CC(C)C[C@H](NC(=O)N[C@@H](Cc1c[nH]c2ccccc12)C(=O)O)C(=O)N[C@H](C(=O)NC[C@H]1C[C@@H](O)[C@H](n2ccc(=O)[nH]c2=O)O1)[C@H](C)N(C)C(=O)[C@@H](N)Cc1cccnc1 [Compound 8]
- CC50 [3]: > 200 µM
- MIC50 [6, 10]: 5.85 ± 2.33 µM (≈ 4.87 µg/mL)
- inhibition at 0.2 µM [8]: 5%

Molecule: CC(C)C[C@H](NC(=O)N[C@@H](Cc1c[nH]c2ccccc12)C(=O)O)C(=O)N[C@H](C(=O)NC[C@H]1C[C@@H](O)[C@H](n2ccc(=O)[nH]c2=O)O1)[C@H](C)N(C)C(=O)[C@@H](N)CCCCN [Compound 15]
- CC50 [3]: > 200 µM
- MIC50 [6, 10]: 1.35 ± 0.07 µM (≈ 1.1 µg/mL)
- MIC50 Mtb H37Rv [6, 11]: 0.95 to 1.35 µM
- inhibition at 0.2 µM [8]: 7%
